Experimental data taken from patent US8211463B2, “Use of glycolipids as adjuvants” (Helmholtz-Zentrum Fuer Infektionsforschung GmbH, priority 2006, dated 2012).

Tests used:
[1] = tested on: spleen cells of immunized mice; assay: Splenocyte proliferation ([3H]thymidine incorporation) after in vitro restimulation with β-Gal; assay type: in vivo, Balb/c mice; conditions: i.n.
Method: (§1) Co-administration of β-Gal with 10 μg glycolipids 1, 5 and 6 induced a strong cellular immune responses against the β-Gal antigen in Balb/c mice. Balb/c mice were immunized by the i.n. or s.c. route with β-Gal alone or together with glycolipids 1, 5 and 6 three times at 2-wk intervals. 10 days after the final immunization, the immunized mice were sacrificed. Splenocytes of mice immunized by the i.n. (A) and s.c. (B) route were collected and cultured with different concentrations of the β-Gal-Protein for 4 days. […] Curves represent [^3H]thymidine incorporation (counts per minute, cpm) and Stimulation index (SI) in each group. Each group consists of five mice. Data are representative of three separate experiments.
as §1, with “with 20 up to 30” for “with 10”, “glycolipids” for “glycolipids 1,”, “represent [3H]thymidine incorpoaration” for “represent [^3H]thymidine incorporation”
Experimental protocol: Spleens were removed and pooled for analysis of cellular immune responses. Cells were grown in RPMI 1640 supplemented with 10% fetal calf serum, 100 U/ml of penicillin, 50 μg/ml of streptomycin, 5×10^−5 M 2-mercaptoethanol and 1 mM L-glutamine (GIBCO BRL, Karlsruhe, Germany) and maintained at 37° C. in a humidified 5% CO2 atmosphere. Spleen cell suspensions were adjusted to 5×10^6 cells/ml in complete medium, cells were seeded with 100 μl per well in a flat-bottomed 96-well microtiter plate (Nunc) and plates were incubated for 4 days. Unstimulated spleen cells were incubated in the presence of different concentrations of the new adjuvants to analyze the in vitro stimulation capacity of glycolipids 1, 5 or 6, respectively. T cellmediated immune responses were investigated at day 38 by measuring the proliferation of cells recovered from spleens after in vitro restimulation with β-Gal. Said spleen cells were obtained from vaccinated mice—said mice where immunized as described in Example 2—and incubated in the presence of different concentrations of the soluble β-Gal antigen. Each concentration was tested in triplicates. During the final 18 h of culture, 1 μCi of [^3H]thymidine (Amersham International, Freiburg, Germany) was added to each well. Cells were then harvested on paper filters (Filtermat A; Wallac, Freiburg, Germany) by using a cell harvester (Inotech, Wohlen, Switzerland), and the amount of incorporated [^3H]thymidine into the DNA of proliferating cells was determined by a β-scintillation counter (Wallac 1450, Micro-Trilux). The results are expressed as the arithmetic mean of [^3H]thymidine uptake in cpm.

[2] = tested on: IFN-γ, IL-2, IL-4, IL-5, and TNFα; assay: Cytometric bead array of cytokines in supernatants of restimulated spleen cells; assay type: in vivo, Balb/c mice; conditions: i.n., 10 μg glycolipid, restimulation with β-Gal antigen for 4 days
Method: Co-administration of β-Gal with 10 μg glycolipid 5 represented both Th1 and Th2 cytokine profiles activities in Balb/c mice. 10 days after the final immunization, the immunized Balb/c mice were sacrificed. A total of 5×10^6 cells/ml were stimulated with different concentrations of the β-Gal antigen for 4 days, and the levels of IFNγ and IL-4 in the supernatant were examined by the BD Cytometric bead array. Cytokine production of the spleen cells were analyzed using BD CBA kit according to the manufacturer's instructions. […] Curves represent cytokine concentration (pg/ml) and Stimulation index (SI) in response to enhanced antigen concentration in each group. Each group consists of five mice. Data are representative of two separate experiments.
To characterize the type of Th response stimulated following immunization, the content of IFN-γ, IL-2, IL-4, IL-5, and TNFα was measured in supernatants from in vitro re-stimulated spleen cells (FIGS. 8 and 9) by the Cytometric Bead Array. Culture supernatants from proliferating cells were collected on days 2 and 4, and stored at −70° C. Determinations of IFN-γ, TNFα, IL-2, IL-4, and IL-5 were performed by cytometric bead array analysis using the commercial kit from BectonDickinson, according to the manufacturer's instructions. […] The probes were analyzed subsequently by flow cytometry as described in the protocol of BD.

[3] = 10 μg glycolipid, restimulation with β-Gal for 4 days

Row | Structure (SMILES) | Stimulation index (SI), [3H]thymidine incorporation of spleen cells [1, 3] | Stimulation index (SI), [3H]thymidine incorporation of spleen cells ([1]; 20 up to 30 μg glycolipid, restimulation with β-Gal for 4 days) | Stimulation index (SI), [3H]thymidine incorporation of spleen cells ([1]; highest concentration (30 μg per animal)) | expression of proinflammatory (TNFα), Th1 (IFNγ and IL-2) and Th2 (IL-5) cytokines by spleen cells [2]
1 | CCCCCCCCCCCCCCOCC(COCCCCCCCCCCCCCC)O[C@@H]1O[C@H](CO[C@H]2O[C@H](CO)[C@H](O)[C@H](O)[C@H]2O)[C@@H](O)[C@H](O)[C@H]1O [glycolipid 6, 1,3-di-O-tetradecyl-2-O-[6′-O-(α-D-galactopyranosyl)-β-D-glucopyranosyl]-sn-glycerol] | no effect | strong responses | > 3 | 
2 | CCCCCCCCCCCCCCOCC(COCCCCCCCCCCCCCC)O[C@@H]1O[C@H](CO)[C@@H](O[C@H]2O[C@H](CO)[C@@H](O)[C@H](O)[C@H]2O)[C@H](O)[C@H]1O [glycolipid 5, 1,3-Di-O-tetradecyl-2-O-[4′-O-(α-D-glucopyranosyl)-β-D-glucopyranosyl]-sn-glycerol] |  |  |  | enhanced expression
3 | CCCCCCCC/C=C\CCCCCCCCOCC(COCCCCCCCC/C=C\CCCCCCCC)O[C@@H]1O[C@H](CO)[C@@H](O[C@H]2O[C@H](CO)[C@@H](O)[C@H](O)[C@H]2O)[C@H](O)[C@H]1O (relative stereo) [glycolipid 1, 1,3-Di-O[cis-9-octadecenyl]-2-O-[4′-O-(α-D-glycopyranosyl)-β-D-glycopyranosyl]-sn-glycerol] | no effect |  |  | 
